The nature of the data set: Human HepG2 cell viability assay in 384 well format. On the set-up: dose 125 nL, time 70.5 hour; concentration not given beside the values. Particulars: HepG2 cells, read-out: Inhibition. It is filed as toxicity, cell-based.

On to `Cc1nc(CCNC(=O)NC2CCCN(c3ncccn3)C2)cs1` (configuration not stated), for which the cytotoxicity at 70.5 h was 23.9%.

Regarding `CS(=O)(=O)NCC1CCCN(C(=O)Nc2ccccc2N2CCCC2)C1` (configuration not stated), the cytotoxicity at 70.5 h was -1.87%.

On to `CNS(=O)(=O)c1ccc(CCC(=O)NCc2cccc(OC)c2)cc1`, for which the cytotoxicity at 70.5 h was -0.152%.

Consider `CN(Cc1cnn(C)c1)C(=O)c1ccc(=O)n(Cc2ccccc2)n1`, for which the cytotoxicity at 70.5 h was 27.5%.

On to `COC(=O)C(C)(C)NC(=O)C1CC(=O)N(CC(F)(F)F)C1` (configuration not stated), for which the cytotoxicity at 70.5 h is 0.904%.

As for `Cc1nnc2n1CCN(C(=O)c1ccn(-c3cccc(F)c3)n1)C2`, the cytotoxicity at 70.5 h came to 5.14%.

Turning to `CCc1nnc2n1CCN(C(=O)c1cn(-c3ccccc3)nn1)C2`, the cytotoxicity at 70.5 h came out at 3.13%.

Turning to `Cc1nnc2n1CCN(C(=O)c1cn(-c3ccc(F)cc3)nn1)C2`, the cytotoxicity at 70.5 h was -0.105%.

In the case of `Cc1cc(NC(=O)N2CCOC(C(N)=O)C2)ccc1Br` (configuration not stated), the cytotoxicity at 70.5 h was -12.3%.

As to `O=C(Nc1cccc(CN2CCC(CO)CC2)c1)c1cc(Cl)c[nH]1`, the cytotoxicity at 70.5 h is 32.7%.

Consider `N#CCSCCCN1CCN(C(=O)c2ccccc2F)CC1`, for which the cytotoxicity at 70.5 h is -12.3%.

In the case of `CN(Cc1ccco1)C(=O)C1=NN(C)C(=O)CC1`, the cytotoxicity at 70.5 h was -3.82%.

With `Cc1cccc(C(=O)N2CCCN(CCCSCC#N)CC2)c1`, the cytotoxicity at 70.5 h was -10.7%.

Turning to `CCCn1nc(C(=O)N(C)Cc2cnn(C)c2)ccc1=O`, the cytotoxicity at 70.5 h was found to be 0.0623%.

As to `Cc1ccc(N(Cc2ccco2)C(=O)CC2=NN(C)C(=O)C2)cc1`, the cytotoxicity at 70.5 h is -9.83%.

Take `COc1c(CNCc2cccnc2N2CCN(C)CC2)c(C)nn1C`: the cytotoxicity at 70.5 h came to 4%.

Regarding `CN(Cc1cccc(C#N)c1)S(=O)(=O)N1CCOCC1`, the cytotoxicity at 70.5 h is -9.82%.

Take `Cc1ccc(CNC(=O)NC2CCCN(c3ncccn3)C2)cn1` (configuration not stated): the cytotoxicity at 70.5 h is -10%.

Regarding `COc1ccc(CNC(=O)c2ccc(Cl)cc2F)cc1C(=O)O`, the cytotoxicity at 70.5 h is -4.39%.

For `Cc1ccc(OCCC(=O)N(C)CCC#N)cc1C`, the cytotoxicity at 70.5 h is -7.6%.

`Cc1nn(CC(=O)N2CCN(Cc3cccnc3)CC2)c(C)c1Cl`: the cytotoxicity at 70.5 h was -10.2%.

For `Cc1cccc(OCCC(=O)N(C)CC(C)C#N)c1C` (configuration not stated), the cytotoxicity at 70.5 h is 19.7%.

On to `COCCn1ccc(NC(=O)Nc2ccncc2)n1`, for which the cytotoxicity at 70.5 h is -3.96%.

Regarding `CCN(C(=O)Cc1ccc(NC(=O)NC2CC2)cc1)c1ccccc1`, the cytotoxicity at 70.5 h was -3.6%.

Take `CCc1cccc(C)c1NC(=O)C1CC(=O)N(Cc2ccccn2)C1` (configuration not stated): the cytotoxicity at 70.5 h was -3.75%.

As to `Cc1noc(C(C)C)c1C(=O)NS(=O)(=O)c1cccnc1`, the cytotoxicity at 70.5 h amounted to 17.5%.

As to `COCCN(C)C(=O)Nc1ccc2c(ccn2CC(=O)N(C)C)c1`, the cytotoxicity at 70.5 h was -3.43%.

Consider `Cc1nc(CC(=O)N2CCN(c3ccc(N(C)C)cc3)CC2)cs1`, for which the cytotoxicity at 70.5 h was 4.33%.

As for `CCc1nccn1C1CCCN(C(=O)c2ccc(C(N)=O)cn2)C1` (configuration not stated), the cytotoxicity at 70.5 h was -9.53%.

For `CC(NC(=O)c1ccc(=O)n(C)c1)c1ccc(OCC2CC2)c(F)c1` (configuration not stated), the cytotoxicity at 70.5 h was -11.1%.

As to `CCc1nccn1C1CCCN(C(=O)c2ccnc(N(C)C)c2)C1` (configuration not stated), the cytotoxicity at 70.5 h was -7.75%.

On to `CCc1csc(C2CCCN(C(=O)c3ccncc3)C2)n1` (configuration not stated), for which the cytotoxicity at 70.5 h was -5.33%.

For `O=C(CN1CCCC1CC(=O)c1ccccc1)NCc1ccccn1` (configuration not stated), the cytotoxicity at 70.5 h was 4.93%.

Take `CSc1ccc(C(CNC(C)=O)N2CCc3sccc3C2)cc1` (configuration not stated): the cytotoxicity at 70.5 h was -12.8%.

Take `CCC(C)C(=O)NCCCn1nc(C)cc1C` (configuration not stated): the cytotoxicity at 70.5 h is -13.2%.

For `CCOc1cccc(C(=O)NCCC(=O)NCc2ccncc2)c1`, the cytotoxicity at 70.5 h amounted to 23%.

`Cc1noc(C(C)N2CCN(c3ccc(C#N)cn3)CC2)n1` (configuration not stated): the cytotoxicity at 70.5 h was -10.1%.

As to `CC(C)c1noc(C(C)N2CCN(c3ccc(C#N)cn3)CC2)n1` (configuration not stated), the cytotoxicity at 70.5 h is -15.5%.

As to `CN(Cc1nccn1CC(F)(F)F)C(=O)c1cccc(N(C)C)c1`, the cytotoxicity at 70.5 h was 0.768%.

On to `CN(Cc1nccn1CC(F)(F)F)C(=O)c1ccc2c(c1)OCO2`, for which the cytotoxicity at 70.5 h is -11%.

For the compound `CCOc1ccc(C(=O)N(C)Cc2nccn2CC(F)(F)F)cc1`, the cytotoxicity at 70.5 h was -2.52%.

As to `O=C(c1n[nH]c(=O)c2ccccc12)N1CCCC1Cn1cccn1` (configuration not stated), the cytotoxicity at 70.5 h is -8.16%.

For `Cc1cc(N2CCN(c3ccc(=O)[nH]n3)CC2)nc(-c2ccncc2)n1`, the cytotoxicity at 70.5 h is -5.53%.

In the case of `Cc1n[nH]c(C2CN(C(=O)c3cc(C4CC4)on3)CCO2)n1` (configuration not stated), the cytotoxicity at 70.5 h came out at 17%.

Turning to `O=C(NCCc1nnc2n1CCC2)NCC1(c2ccccc2F)CC1`, the cytotoxicity at 70.5 h was -6.03%.

As to `CC1CN(CC(=O)NC(=O)NCc2cccs2)CCN1CC(F)(F)F` (configuration not stated), the cytotoxicity at 70.5 h is -11%.

With `COc1cc(C(=O)N(C)Cc2nccn2CC(F)(F)F)ccc1C`, the cytotoxicity at 70.5 h worked out at 15.7%.

As to `COC(=O)c1ccoc1CN(C)Cc1cc(OC)c(OC)cc1C`, the cytotoxicity at 70.5 h was -12.1%.

`CCc1n[nH]c(C2CN(C(=O)c3cc(C4CC4)on3)CCO2)n1` (configuration not stated): the cytotoxicity at 70.5 h was -5.69%.

With `O=C(CN1CCCC1COc1ccccc1)NCc1ccccn1` (configuration not stated), the cytotoxicity at 70.5 h is -10.9%.

For the compound `Cc1cnn(CC2CCCN2C(=O)CCc2c(C)nc(C)[nH]c2=O)c1` (configuration not stated), the cytotoxicity at 70.5 h is -10.8%.

For `Cc1cnn(CC2CCCN2CC(=O)NCc2ccccn2)c1` (configuration not stated), the cytotoxicity at 70.5 h was -3.32%.

Regarding `CCc1nc(CN2CCCC(N(C)CCc3cccs3)C2)no1` (configuration not stated), the cytotoxicity at 70.5 h is 21.1%.

Take `CN(CCc1ccccn1)C1CCCN(Cc2noc(C3CC3)n2)C1` (configuration not stated): the cytotoxicity at 70.5 h was -4.84%.

On to `CC(=O)N1CCN(CCNS(=O)(=O)c2cc(F)ccc2C)CC1`, for which the cytotoxicity at 70.5 h stood at 4.62%.

For the compound `O=C(CC1CCCO1)NCCc1ccc(Br)cc1F` (configuration not stated), the cytotoxicity at 70.5 h was -5.5%.

For `COc1ccc(CNCCc2ccn(-c3ccccc3)n2)cc1O`, the cytotoxicity at 70.5 h is -8.7%.

Take `O=C(CCC1CCCO1)NCc1ccc(Br)cc1F` (configuration not stated): the cytotoxicity at 70.5 h was found to be 12.7%.

With `CSCC(=O)NC1CCN(C(C)c2ccccc2)CC1` (configuration not stated), the cytotoxicity at 70.5 h was -6.02%.

`Cc1cc(C#N)ccc1S(=O)(=O)NCc1cnc(N(C)C)n1C`: the cytotoxicity at 70.5 h is -5.78%.

Turning to `Cc1nn(C)c(C)c1CC(C)NC(=O)NCc1ccoc1C` (configuration not stated), the cytotoxicity at 70.5 h is -4.68%.

`COc1ccccc1CC(C)(C)NC(=O)CC(F)(F)F`: the cytotoxicity at 70.5 h is -11.8%.

Regarding `Cn1cc(CNC(=O)C2CCCN(Cc3cccc(F)c3)C2)cn1` (configuration not stated), the cytotoxicity at 70.5 h is -11.1%.

On to `O=C1N(CC2CC2)C(c2c[nH]nc2-c2cccnc2)NC12CCCC2` (configuration not stated), for which the cytotoxicity at 70.5 h is -12.7%.

Turning to `CCN(Cc1nnnn1C1CC1)c1cc(C)ccc1C`, the cytotoxicity at 70.5 h is -2.4%.

Turning to `CCc1nc(CN2CCC(C(=O)N(C)C)CC2)cs1`, the cytotoxicity at 70.5 h was determined as 0.679%.

As to `CC(NCc1ccc(C(C)(C)C)cc1)c1ccc(S(C)(=O)=O)cc1` (configuration not stated), the cytotoxicity at 70.5 h is -8.09%.

For the compound `CC(NCc1ccc(F)cc1)c1ccc(S(C)(=O)=O)cc1` (configuration not stated), the cytotoxicity at 70.5 h was -7.76%.

In the case of `CCC(NCc1ccccc1)c1ccccc1OCC(=O)NC` (configuration not stated), the cytotoxicity at 70.5 h was -6.53%.

Consider `CCC(NCc1cccc(Cl)c1)c1ccccc1OCC(=O)NC` (configuration not stated), for which the cytotoxicity at 70.5 h is -1.52%.

Take `CN(Cc1ccc(Cl)s1)C(=O)Nc1ccc(N(C)C)nc1`: the cytotoxicity at 70.5 h was -11.5%.

As for `Cc1nn(C)c(Cl)c1CNCc1cccnc1N1CCCCC1`, the cytotoxicity at 70.5 h is -2.26%.

Source of the values: ChEMBL document CHEMBL3507680, “University of Dundee, Gates Library screen for HepG2 cell viability”.
